Test results as given in US8557859B2, “Immunomodulatory compositions” (Summit (Wales) Limited, priority 2003, dated 2013).

Columns and labels:
Dendritic cells = test: Induction of IL-12 secretion in dendritic cells (ELISA); type: cell-based, BALB/c mice; settings: dendritic cells; compounds 50 μg/ml and 20 μg/ml, 24 hrs (or 48 hrs)
Experimental: BALB/c male and female mice bred and maintained at the University of Strathclyde under conventional conditions were used at 8 weeks old.
Bone marrow was obtained from the femurs of mice. The femurs were washed in 70% ethanol and placed in a clean petri dish. Dendritic cell (DC) medium (2.5% granulocyte-macrophage colony-stimulating factor (GM-CSF), 10% […] foetal calf serum, 1% L-glutamine, 1% Penicillin/Streptomycin in RPMI-1640 medium) was injected into the bone marrow of the femur by a pumping action and the cells and medium were collected. 1 ml of the cells in medium was added to a 75 cm^2 flask with 15 mls of DC medium. The flasks were then incubated at 37° C., 5% CO2 to allow DC growth and development. After 5 days an additional 10 mls of DC medium was added.
After 10 days of incubation of bone marrow with GM-CSF, the dendritic cells were harvested. This process was carried out in a tissue culture hood. The contents of the flasks were poured into centrifuge tubes to ensure collection of floating DCs. Approximately 10 mls of cooled phosphate buffered saline (PBS) was added to each empty flask, the flasks gently agitated and the contents collected. […] The collected contents of the flasks were centrifuged for 5 minutes at 200 g and the pellet resuspended in 2 mls of DC medium without GM-CSF. A cell count was then carried out.
Cells were counted using a haemocytometer. Approximately 20 μl of the resuspended cells was pipetted into the chamber of the haemocytometer, the cells were adjusted to the correct cell concentration (approx. 5×10^4, and not less than 1×10^4, per well) and then plated out for assay.
The plates were incubated overnight at 37° C. with 5% CO2 and allowed to settle (harvesting stimulates them). The next day the compounds (50 μg/ml and 20 μg/ml) and controls were added then again incubated at 37° C. with 5% CO2 for 24 hrs (or 48 hrs). Harvesting and addition of the compounds was all done in a hood. The plates were then frozen to kill the cells and once defrosted the supernatant analysed as described below.
Using an enzyme linked immunosorbent assay (ELISA) IL-12 concentration in the supernatants was measured. All reagents used in this assay were from PharMingen. A 96-well flat-bottomed ELISA plate was coated with purified rat anti-mouse IL-12 (p40/p70) MAb (Cat no. 554478) at 2 μg/ml diluted in PBS pH 9.0 at 50 μl/well. The plate was then covered in cling film and incubated at 4° C. Following incubation the plate was washed 3 times in washing buffer and dried. 200 μl of blocking buffer (10% foetal calf serum in PBS pH 7.0) was added to each well then covered in cling film and incubated at 37° C. for 45 minutes. The plate was washed 3 times and dried. Recombinant mouse Il-12 standard was added at 30 μl in duplicate wells, starting at 10 ng/ml then 5, 2.5, 1.25, 0.625, 0.31, 0.156, 0.078, 0.039, 0.020, 0.010, 0.005 ng/ml. Standards were diluted in blocking buffer. The supernatant samples were added in at 50 μl/well. The plate was then covered in cling film and incubated for 2 hours at 37° C. The plate was then washed 4 times, dried and the secondary antibody added.
Biotin labelled anti-mouse IL-12 (p40/p70) MAb (Cat no. 18482D) at 1 μg/ml (diluted in blocking buffer) was added to each well at a volume of 100 μl/well. The plate was covered in cling film and incubated at 37° C. for 1 hour. The plate was then washed 5 times, dried and the conjugate added. Streptavidin-AKP (Cat no. 13043E) at 100 μl/well was added at a dilution of 1/2000 in blocking buffer followed by incubation under cling film at 37° C. for 45 minutes.
The plate was finally washed 6 times, dried and the substrate added. pNPP (Sigma) in glycine buffer at 1 mg/ml was added at 100 μl/well. The plate was then covered in tinfoil, incubated at 37° C. and checked every 30 minutes for a colour change.
The plate was then read at 405 nm using a SPECTRAmax 190 spectrometer.

Spleen cells = test: Cytokine modulation in spleen cells: splenocyte IFN-γ production; type: cell-based, BALB/c mice; settings: result in words
Experimental: BALB/c male and female mice bred and maintained at the University of Strathclyde under conventional conditions were used at varying age.
The mouse spleen was removed aseptically and placed in a sterile petri dish containing 5 mls of complete medium (RPMI, 1% L-Glutamine, 1% Penicillin/Streptomycin and 10% foetal calf serum). Cells suspensions were prepared by using the end of a syringe and grinding the spleen through a wire mesh. The cell suspension was then centrifuged at 1000 rpm for 5 minutes. To remove the erythrocytes, the cell pellet was resuspended in Boyle's solution (Tris 0.17M & Ammonium Chloride 0.16M) and centrifuged again for 5 minutes. The pellet was then washed in medium a further two times, then resuspended in 3 mls medium. A cell count was then carried out.
All spleen cell experiments were carried out in 96-well tissue culture plates. […] Unstimulated wells contained 100 μl of cells and 100 μl of medium. The stimulated wells contained 100 μl of cells plus 50 μl of LPS at 1 μg/ml or 50 μl anti-CD3 at 0.5 μg/ml and 50 μl of medium. The remaining wells contained 100 μl cells, 50 μl of MNLP compound and either 50 μl of anti-CD3 or medium alone.
The appropriate Mabs and standards were used according to the protocol described for IL-12 (described in Example 1, above).

B16-F10 tumour cells = test: Control of lung metastasis in mice; type: in vivo, Mice (C57/bl6); settings: 50 mg/kg s/c on days 2 and 4; lungs on day 14
Experimental: Mice (C57/bl6 under i/p ketamine anaesthesia) were challenged i/v (tail vein) with 5×10^4 B16-F10 tumour cells in a final volume of 100 μl per mouse on day 0. Test compounds (50 mg/kg in 200 μl sterile non-pyrogenic saline) were administered s/c (right flank) on days 2 and 4. On day 14 the mice were sacrifices and the lungs dissected and stained in Indian ink solution (150 ml bidistilled water, 30 ml India Ink, 4 drops NH4OH) for 10 minutes then fixed for at least 24 hr in Fakete's solution (90 ml 37% formaldehyde, 900 ml 70% EtOH and 45 ml glacial acetic acid). The metastases in the stained and fixed lungs could then be visualized, counted and photographed.

Naringinase = test: Glycosidase inhibition, Naringinase; type: biochemical, Penecillium decumbens; settings: 1 mg/ml
Experimental: (§1) All enzymes were purchased from Sigma, as were the appropriate p-nitrophenyl substrates. Assays were carried out in microtitre plates. Enzymes were assayed in 0.1 M citric acid/0.2M di-sodium hydrogen phosphate (McIlvaine) buffers at the optimum pH for the enzyme. All assays were carried out at 20° C. For screening assays the incubation assay consisted of 10 μl of enzyme solution, 10 μl of inhibitor solution (made up in water) and 50 μl of the appropriate 5 mM p-nitrophenyl substrate (3.57 mM final conc.) made up in McIlvaine buffer at the optimum pH for the enzyme.
(§2) The reactions were stopped with 0.4M glycine (pH 10.4) during the exponential phase of the reaction, which was determined at the beginning of the assay using blanks with water, which were incubated for a range of time periods to measure the reaction rate using 5 mM substrate solution. Endpoint absorbances were read at 405 nm with a Biorad microtitre plate reader (Benchmark). Water was substituted for the inhibitors in the blanks.

β-D-galactosidase = test: Glycosidase inhibition, β-D-galactosidase; type: biochemical, Bovine liver; settings: 1 mg/ml; second galactosidase line
Experimental: as §1, §2

α-D-glucosidase = test: Glycosidase inhibition, α-D-glucosidase (Bacillus); type: biochemical, Bacillus stearothermophilus; settings: 1 mg/ml
Experimental: as §1, §2

[1] = test system: N-acetyl-β-D-glucosaminidase; test: Glycosidase inhibition, N-acetyl-β-D-glucosaminidase; type: biochemical, Bovine kidney; settings: 1 mg/ml
Experimental: as §1, §2

β-D-glucosidase = test: Glycosidase inhibition, β-D-glucosidase; type: biochemical, Almonds (Prunus sp.); settings: 1 mg/ml
Experimental: as §1, §2

glycosidase = settings: see U.S. Pat. No. 5,075,457; cited from earlier work
HSV-1 (SC16) = test: Treatment of murine HSV-1 infection: ear pinna thickness; type: in vivo, BALB/c mice; settings: for Ear pinna thickness (mm^−2): Group 4: via drinking water 1 mg/ml
[2] = Treatment of murine HSV-1 infection: body weight; type: in vivo, BALB/c mice; settings: Group 4: via drinking water 1 mg/ml

In the case of `OC[C@H]1NC[C@H](O)[C@@H](O)[C@@H]1O` [1-Deoxynojirimycin (DNJ) (21), 1-Deoxynojirimycin], the “IL-12 RELEASE” value (Dendritic cells) is reported as “No” and the “IFN-γ secretion/production in splenocytes” value (Spleen cells) is reported as “inhibited IFN-γ secretion/production in splenocytes”.
With `OC[C@H]1[C@@H](O)[C@H](O)[C@H]2[C@@H](O)CCN21` [3,7a-diepialexine (23), 3,7a-diepialexine] the “IL-12 RELEASE” value (Dendritic cells) was “No”.
With `OC[C@H]1[C@@H](O)[C@H](O)[C@H]2[C@H](O)[C@@H](O)CN21` [3-epi-casuarine (14), 3-epi-casuarine] the Metastatic morphology (B16-F10 tumour cells) was “Metastasis restricted to apical tip of lung”, the “% inhibition Naringinase” value (Naringinase) was 21% and the “IL-12 RELEASE” value (Dendritic cells) was “Yes”. The “% inhibition galactosidase” value (β-D-galactosidase) was 6%, the “% inhibition gluc (Bacillus)” value (α-D-glucosidase) was 12% and the “% inhibition N-acetyl-β-gluc” value [1] was −1%. The “% inhibition glucosidase” value (β-D-glucosidase) was 56%.
With `OC[C@@H]1[C@@H](O)[C@H](O)[C@H]2[C@@H](O)[C@@H](O)CN21` [7-epi-casuarine (11), 7-epi-casuarine] the “% inhibition Naringinase” value (Naringinase) was −4%, the “IL-12 RELEASE” value (Dendritic cells) was “Yes” and the “% inhibition gluc (Bacillus)” value (α-D-glucosidase) was 5%. For the same compound, the “% inhibition glucosidase” value (β-D-glucosidase) was 30%.
For `OC[C@@H]1[C@@H](O)[C@H](O)[C@H]2[C@@H](O)CCN21` [7-epialexine (22), 7-epialexine], the “IL-12 RELEASE” value (Dendritic cells) was “No”.
In the case of `O[C@H]1[C@H]2[C@@H](O)CCN2C[C@H]1O` [7S-epimer (6)], the “glycosidase inhibitory activity relative to swainsonine” value (glycosidase) is given as “much weaker inhibitory activity relative to swainsonine itself”.
In the case of `O[C@H]1[C@H]2[C@H](O)CCN2C[C@H]1O` [(1S,2R,7R,7aR)-1,2,7-trihydroxypyrrolizidine], the “glycosidase inhibitory activity relative to swainsonine” value (glycosidase) is given as “much weaker inhibitory activity relative to swainsonine itself”.
In the case of `OC[C@@H]1[C@@H](O)[C@H](O)[C@@H]2[C@@H](O)CCN21` [Alexine (1), Alexine], the “IL-12 RELEASE” value (Dendritic cells) is reported as “No”.
In the case of `OC[C@H]1[C@@H](O)[C@H](O)[C@H]2[C@@H](O)[C@H](O)CN21` [Compound 12, 3,6,7-triepi-casuarine], the “% inhibition Naringinase” value (Naringinase) is reported as 0%, the “% inhibition galactosidase” value (β-D-galactosidase) is reported as 6% and the “% inhibition gluc (Bacillus)” value (α-D-glucosidase) is reported as 9%. For the same compound, the “% inhibition N-acetyl-β-gluc” value [1] was 19% and the “% inhibition glucosidase” value (β-D-glucosidase) was 6%.
With `OC[C@H]1[C@@H](O)[C@H](O)[C@@H]2[C@@H](O)[C@H](O)CN21` [Compound 21, 3,6,7,7a-tetraepi-casuarine] the “% inhibition Naringinase” value (Naringinase) was 5%, the “% inhibition galactosidase” value (β-D-galactosidase) was 3% and the “% inhibition gluc (Bacillus)” value (α-D-glucosidase) was −2%. The “% inhibition N-acetyl-β-gluc” value [1] was 27% and the “% inhibition glucosidase” value (β-D-glucosidase) was 44%.
With `OC[C@H]1[C@@H](O)[C@H](O)[C@@H]2[C@@H](O)[C@@H](O)CN21` [Compound 22, 3,7,7a-triepi-casuarine] the “% inhibition Naringinase” value (Naringinase) was 10% and the “% inhibition gluc (Bacillus)” value (α-D-glucosidase) was 87%.
In the case of `OCC1O[C@H](O[C@H]2CN3[C@@H]([C@@H](O)[C@H](O)[C@H]3CO)[C@@H]2O)C(O)[C@@H](O)[C@@H]1O` (stereo partly drawn) [casuarine-6-α-D-glucopyranose (9), casuarine-6-α-D-glucopyranose], the “IL-12 RELEASE” value (Dendritic cells) is reported as “Yes”.
In the case of `CC(=O)OCC(CCn1cnc2cnc(N)nc21)COC(C)=O` [famciclovir, reference compound], the “Ear pinna thickness (mm^−2)” value (HSV-1 (SC16); day 0) is reported as 0 mm^−2, the “Ear pinna thickness (mm^−2)” value (HSV-1 (SC16); day 1) is reported as 0 mm^−2 and the “Ear pinna thickness (mm^−2)” value (HSV-1 (SC16); day 2) is reported as 0 mm^−2. The “Ear pinna thickness (mm^−2)” value (HSV-1 (SC16); day 3) was 7 mm^−2, the “Ear pinna thickness (mm^−2)” value (HSV-1 (SC16); day 4) was 7 mm^−2 and the “Ear pinna thickness (mm^−2)” value (HSV-1 (SC16); day 5) was 0 mm^−2. For the same compound, the “Ear pinna thickness (mm^−2)” value (HSV-1 (SC16); day 6) was 4 mm^−2, the “Ear pinna thickness (mm^−2)” value (HSV-1 (SC16); day 7) was 0 mm^−2 and the “Ear pinna thickness (mm^−2)” value (HSV-1 (SC16); day 8) was 2.9 mm^−2. For the same compound, the “Ear pinna thickness (mm^−2)” value (HSV-1 (SC16); day 9) was 2.9 mm^−2, the “Ear pinna thickness (mm^−2)” value (HSV-1 (SC16); day 11) was 2.9 mm^−2 and the “Ear pinna thickness (mm^−2)” value (HSV-1 (SC16); day −2) was 0 mm^−2. For the same compound, the ear thickness response (HSV-1 (SC16); result in words, casuarine at both doses (15 and 150 mg/kg i.p.), famciclovir via drinking water 1 mg/ml) was “almost completely negated the ear thickness response”, the “Group mean weight” value ([2]; day 0) was 15.1 g and the “Weight (% change)” value ([2]; day 0) was 9%. For the same compound, the “Group mean weight” value ([2]; day 1) was 15.6 g, the “Weight (% change)” value ([2]; day 1) was 13% and the “Group mean weight” value ([2]; day 2) was 15.8 g. For the same compound, the “Weight (% change)” value ([2]; day 2) was 14.5%, the “Group mean weight” value ([2]; day 3) was 16.4 g and the “Weight (% change)” value ([2]; day 3) was 18.8%. For the same compound, the “Group mean weight” value ([2]; day 4) was 16.3 g, the “Weight (% change)” value ([2]; day 4) was 18.1% and the “Group mean weight” value ([2]; day 5) was 16.7 g. The “Weight (% change)” value ([2]; day 5) was 21%, the “Group mean weight” value ([2]; day 6) was 17.1 g and the “Weight (% change)” value ([2]; day 6) was 23.9%. For the same compound, the “Group mean weight” value ([2]; day 7) was 16.7 g, the “Weight (% change)” value ([2]; day 7) was 21% and the “Group mean weight” value ([2]; day 8) was 17.1 g. For the same compound, the “Weight (% change)” value ([2]; day 8) was 23.9%, the “Group mean weight” value ([2]; day 9) was 17.1 g and the “Group mean weight” value ([2]; day 10) was 17.2 g. The “Group mean weight” value ([2]; day 11) was 17.1 g, the “Group mean weight” value ([2]; day 12) was 17.2 g and the “Group mean weight” value ([2]; day −2) was 13.8 g. The “Weight (% change)” value ([2]; day −2) was 0%.
